One assay deals with T1, human H1 receptor (Homo sapiens, UniProt P35367).
T1 construct: purchased; host or cells: CHO cells
The assay can be described thus: Human H1 receptor affinity test (Test Example 2). As to conditions: CHO cell membrane preparation expressing human H1 receptor, [3H]-pyrilamine 2 nmol/L. The format is binding. How it is done:
Chinese hamster ovarian cells (CHO cells) having human H1 receptor forcibly express were purchased and used as an H1 receptor membrane preparation. […] To the resulting each sample, 50 μL of 8 nmol/L [^3H]-pyrilamine (final concentration: 2 nmol/L) was added and mixed. […] The glass filter was cut off and transferred in a vial. To the vial was added 5 mL of a scintillator (manufactured by National Diagnostics), and the mixture was shaken for not less than one hour. Thereafter, the radioactive concentration was measured by a liquid scintillation counter.

A further assay has as its target T2, rat H1 receptor (Rattus norvegicus, UniProt P31390).
T2 construct: An H1 receptor membrane preparation was prepared from rat cerebrum; from tissue; host or cells: rat cerebrum
The assay can be described thus: Rat H1 receptor affinity test (Test Example 1). Format: binding. The note with it: rat cerebrum membrane preparation, [3H]-pyrilamine 2 nmol/L. As for the experimental part:
An H1 receptor membrane preparation was prepared from rat cerebrum. […] To the resulting each sample, 50 μL of 8 nmol/L [^3H]-pyrilamine (manufactured by PerkinElmer) (final concentration: 2 nmol/L) was added and mixed. After the mixture was incubated at a room temperature for 30 minutes, the reaction solution was collected on a glass filter by a cell harvester (manufactured by Molecular Devices), and then the filter was washed with the incubation buffer. The glass filter was cut off and transferred in a vial. To the vial was added 5 mL of a scintillator (manufactured by National Diagnostics), and the mixture was shaken for not less than one hour. Thereafter, the radioactive concentration was measured by a liquid scintillation counter.

The subject of assay [1] is histamine-induced skin reaction in rat. The assay is described as follows: Histamine-induced skin reaction test in rat (Test Example 3). The format is in vivo. As to conditions: oral, histamine 10 μg/0.1 mL/site intradermal, pigment area, read-out: Skin reaction test in rat ID50. How it is done: […] One hour after the administration, a 1% Evans Blue physiological saline solution (Tokyo Chemical Industry Co., Ltd.) was administered into the caudal vein in a dose of 5 mL/kg, and immediately histamine 10 μg/0.1 mL/site (manufactured by Wako Pure Chemical Industries, Ltd.) was intradermally administered into the dorsum. Thirty minutes after the administration, the rat was anesthetized with diethyl ether and then euthanized by cervical dislocation. The skin was ablated, and the major axis and minor axis of a spot of the pigment exuded into the skin were measured to calculate the area of the pigment.

In assay [2] the test system is histamine-induced skin reaction in mouse. The assay is described as follows: Skin reaction test in mouse (Test Example 4). Format: in vivo. As to conditions: oral, histamine 3 μg/50 μL/site intradermal, pigment area, read-out: Skin reaction test in mouse ID50. How it is done:
Each mouse was sheared the day before test and fasted overnight. A low, middle or high dose of each test compound suspended in a 0.5% (W/V) CMC-Na aqueous solution was orally administered to the mouse. One hour after the administration, a 1% Evans Blue physiological saline solution (Tokyo Chemical Industry Co., Ltd.) was administered into the caudal vein in a dose of 10 mL/kg, and immediately histamine 3 μg/50 μL/site was intradermally administered into the dorsum. Thirty minutes after the administration, the mouse was anesthetized with diethyl ether and then euthanized by cervical dislocation. The skin was ablated, and the major axis and minor axis of a spot of the pigment exuded into the skin were measured to calculate the area of the pigment.

As usually defined, the IC50 is the concentration at which inhibition is half-maximal. High values mean a need for much substance, low ones inhibition by little substance.

T2 sequence (P31390 whole entry): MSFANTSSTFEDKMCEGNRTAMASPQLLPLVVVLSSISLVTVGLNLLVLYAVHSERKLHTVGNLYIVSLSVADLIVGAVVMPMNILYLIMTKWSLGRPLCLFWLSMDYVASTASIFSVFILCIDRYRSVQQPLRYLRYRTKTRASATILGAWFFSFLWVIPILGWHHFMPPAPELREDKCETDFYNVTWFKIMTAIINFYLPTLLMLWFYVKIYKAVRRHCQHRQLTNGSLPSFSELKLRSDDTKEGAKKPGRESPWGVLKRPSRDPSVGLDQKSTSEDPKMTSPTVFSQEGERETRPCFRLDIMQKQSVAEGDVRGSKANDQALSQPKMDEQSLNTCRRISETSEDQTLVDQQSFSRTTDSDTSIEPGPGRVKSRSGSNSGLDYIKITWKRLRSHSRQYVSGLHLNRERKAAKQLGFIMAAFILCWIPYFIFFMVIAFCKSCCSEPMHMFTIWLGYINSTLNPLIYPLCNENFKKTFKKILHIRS
T1 sequence (P35367 whole entry): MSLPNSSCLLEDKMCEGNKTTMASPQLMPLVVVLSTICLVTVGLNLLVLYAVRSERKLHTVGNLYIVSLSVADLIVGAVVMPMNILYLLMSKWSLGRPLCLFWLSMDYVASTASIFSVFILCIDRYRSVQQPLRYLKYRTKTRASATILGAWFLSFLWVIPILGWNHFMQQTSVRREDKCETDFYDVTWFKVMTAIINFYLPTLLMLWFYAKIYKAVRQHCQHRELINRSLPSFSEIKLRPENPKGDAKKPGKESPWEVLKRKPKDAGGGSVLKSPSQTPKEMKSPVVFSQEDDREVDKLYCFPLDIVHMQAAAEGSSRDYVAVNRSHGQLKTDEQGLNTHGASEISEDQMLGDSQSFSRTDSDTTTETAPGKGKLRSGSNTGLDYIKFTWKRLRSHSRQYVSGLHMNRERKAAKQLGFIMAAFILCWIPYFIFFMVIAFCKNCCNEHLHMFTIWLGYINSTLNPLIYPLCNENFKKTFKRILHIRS

Take `O=C(O)c1cncc(CN2CCC(OC(c3ccccc3)c3ccccc3)CC2)c1` [Example 30]: the IC50 worked out at 15 nM on human H1 receptor and 42 nM on rat H1 receptor.

`O=C(O)c1cccc(CN2CC[C@H](OC(c3ccc(F)cc3)c3ccc(F)cc3)C2)n1` [Example 155] had an IC50 against human H1 receptor of 10 nM.

For `O=C(O)c1cnn(CN2CCC(OC(c3ccccc3)c3ccccc3)CC2)c1` [Example 84], it took 17 nM to reach half-maximal inhibition against human H1 receptor (IC50).

Consider `O=C(O)c1cccc(CN2CCC(OC(c3ccccc3)c3cccc(C(F)(F)F)c3)CC2)n1` (stereo not shown) [Example 26], for which the IC50 at rat H1 receptor amounted to 83 nM.

The molecule `Cc1ccc(C(OC2CCN(Cc3ccc(C(=O)O)o3)CC2)c2ccccc2)cc1` (stereo not shown) [Example 46] yielded an IC50 against rat H1 receptor of 68 nM.

On to `O=C(O)COCCN1CCN(C(c2ccccc2)c2ccc(Cl)cc2)CC1` (stereo not shown) [Cetirizine], for which half-maximal inhibition against rat H1 receptor (IC50) required 88 nM.

`O=C(O)c1nc(CN2CCC(OC(c3ccccc3)c3ccccc3)CC2)cs1` [Example 36] returned an IC50 at rat H1 receptor of 99 nM.

On to `O=C(O)c1cccc(CN2CCC(OC(c3ccc(F)cc3)c3cccc(F)c3)CC2)n1` (stereo not shown) [Example 49], for which the concentration for half-maximal inhibition (IC50) was determined as 17 nM on human H1 receptor and 89 nM against rat H1 receptor. In addition, in assay [1], the ED50 came to 1.5 mg/kg.

For `COc1ccc(CN2CCC(OC(c3ccccc3)c3ccc(F)c(F)c3)CC2)nc1C(=O)O` (stereo not shown) [Example 53], at human H1 receptor, the 50% inhibitory concentration (IC50) turned out to be 14 nM.

As for `O=C(O)c1cccc(CN2CCC(=C3c4ccccc4COc4ccccc43)CC2)n1` [Example 80], the IC50 on human H1 receptor came to 17 nM.

For the molecule `O=C(O)c1cccc(CN2CCC(OC(c3ccccc3)c3cccc(F)c3)CC2)n1` (stereo not shown) [Example 25], the figures for the IC50 against human H1 receptor and on rat H1 receptor were 22 nM and 12 nM, respectively.

Regarding `COc1ccc(C(OC2CCN(Cc3cccc(C(=O)O)n3)CC2)c2ccccc2)cc1` (stereo not shown) [Example 17], at rat H1 receptor, the IC50 came to 110 nM.

On rat H1 receptor, `O=C(O)c1cccc(CN2CCC(=C3c4ccc(Cl)cc4CCc4cccnc43)CC2)n1` [Example 68] came in with an IC50 of 40 nM.

In the case of `O=C(O)c1ccnc(CN2CCC(OC(c3ccccc3)c3cccc(F)c3)CC2)c1` (stereo not shown) [Example 40], the results for the IC50 at human H1 receptor and at rat H1 receptor were 26 nM and 1.2 nM, respectively.

On to `O=C(O)c1ccnc(CN2CCC(OC(c3ccccc3)c3ccc(Cl)cc3)CC2)c1` (stereo not shown) [Example 42], for which the IC50 against human H1 receptor worked out at 19 nM; at rat H1 receptor it was 24 nM. The ED50 in assay [1] is 1.8 mg/kg.

As to `O=C(O)c1ccc(CN2CCC(OC(c3ccccc3)c3ccc(F)cc3)CC2)cn1` (stereo not shown) [Example 85], half-maximal inhibition at human H1 receptor (IC50) required 22 nM.

Regarding `O=C(O)c1ccc(CN2CCC(OC(c3ccccc3)c3ccc(Cl)cc3)CC2)o1` (stereo not shown) [Example 43], the IC50 against human H1 receptor was 12 nM; on rat H1 receptor it was 18 nM.

On rat H1 receptor, `O=C(O)c1cc(CN2CCC(OC(c3ccccc3)c3ccccc3)CC2)ccn1` [Example 29] yielded an IC50 of 63 nM.

As for `O=C(O)c1cc(F)cc(CN2CCC(OC(c3ccccc3)c3ccccc3)CC2)c1` [Example 6], the figures for the IC50 at human H1 receptor and on rat H1 receptor were 11 nM and 38 nM, respectively. In assay [1], the ED50 came to 0.6 mg/kg.

For the molecule `O=C(O)c1cccc(CN2CCC(OC(c3ccccc3)c3cccc(Cl)c3)CC2)n1` (stereo not shown) [Example 116], on human H1 receptor, 17 nM corresponded to half-maximal inhibition (IC50).

At human H1 receptor, `O=C(O)c1cccc(CN2CCC(OC(c3ccc(F)cc3)c3ccccc3F)CC2)n1` (stereo not shown) [Example 86] registered an IC50 of 16 nM.

Molecule `O=C(O)c1cncc(CN2CCC(OC(c3ccccc3)c3ccc(F)cc3)CC2)c1` (stereo not shown) [Example 88] showed an IC50 against human H1 receptor of 21 nM.

Regarding `O=C(O)c1cccc(CN2CC[C@@H](OC(c3ccccc3)c3ccccc3)C2)n1` [Example 128, 6-((R)-3-Benzhydryloxypyrrolidin-1-ylmethyl)pyridine-2-carboxylic acid], on human H1 receptor, the half-inhibitory concentration (IC50) turned out to be 6.1 nM.

As for `O=C(O)c1cccc(CN2CCC(OC(c3ccccc3)c3ccc(F)cc3)CC2)n1` (stereo not shown) [Example 18], the IC50 on rat H1 receptor was determined as 89 nM. Also, in assay [1], the ED50 worked out at 0.2 mg/kg.

In turn, `O=C(O)c1ccnc(CN2CCC(OC(c3ccccc3)c3ccc(F)c(F)c3)CC2)c1` (stereo not shown) [Example 51] displayed an IC50 against human H1 receptor of 4.9 nM. Besides, in assay [2], the ED50 was 0.07 mg/kg.

Take `O=C(O)c1cccc(CN2CCN(C(c3ccccc3)c3ccc(Cl)cc3)CC2)n1` (stereo not shown) [Example 23]: the IC50 against human H1 receptor was 30 nM; on rat H1 receptor, 36 nM. In addition, the ED50 in assay [1] came to 1.8 mg/kg.

In the case of `O=C(O)c1nc(CN2CCC(OC(c3ccccc3)c3ccc(Cl)cc3)CC2)cs1` (stereo not shown) [Example 44], the IC50 against rat H1 receptor came out at 20 nM.

In the case of `O=C(O)c1ccc(CN2CCC(OC(c3ccccc3)c3ccccc3)CC2)o1` [Example 1, 5-(4-Benzhydryloxypiperidin-1-ylmethyl)furan-2-carboxylic acid], the IC50 on human H1 receptor worked out at 14 nM; on rat H1 receptor, 81 nM.

Regarding `O=C(O)c1cccc(CN2CCC(=C3c4ccccc4CCc4ccccc43)CC2)n1` [Example 75], the IC50 on human H1 receptor was 23 nM; against rat H1 receptor it was 67 nM. Further, the ED50 in assay [1] turned out to be 1.2 mg/kg.

Consider `O=C(O)c1ccnc(CN2CCC(=C3c4ccccc4C=Cc4ccccc43)CC2)c1` [Example 72], for which the IC50 at human H1 receptor came to 8.9 nM. For the same molecule, the ED50 in assay [2] was 0.06 mg/kg.

Take `O=C(O)c1cccc(CN2CCN(C(c3ccccc3)c3ccc(F)cc3)CC2)n1` (stereo not shown) [Example 143]: at human H1 receptor, the 50% inhibitory concentration (IC50) is 24 nM.

On human H1 receptor, `O=C(O)c1ccnc(CN2CCC(OC(c3ccccc3)c3cccc(Cl)c3)CC2)c1` (stereo not shown) [Example 117] came in with an IC50 of 24 nM.

For `O=C(O)c1csc(CN2CCC(OC(c3ccccc3)c3ccccc3)CC2)n1` [Example 4], the IC50 against rat H1 receptor stood at 39 nM.

`O=C(O)c1cc(CN2CCC(OC(c3ccccc3)c3ccc(F)cc3)CC2)cs1` (stereo not shown) [Example 89] displayed an IC50 on human H1 receptor of 7.5 nM.

For `Cc1ccc(C(OC2CCN(Cc3cc(C(=O)O)ccn3)CC2)c2ccccc2)cc1` (stereo not shown) [Example 41], the IC50 at human H1 receptor came out at 18 nM; on rat H1 receptor, 19 nM.

The molecule `O=C(O)c1ccnc(CN2CCC(OC(c3ccc(F)cc3)c3cccc(F)c3)CC2)c1` (stereo not shown) [Example 52] had an IC50 at human H1 receptor of 6.7 nM. In addition, the ED50 in assay [2] is 0.1 mg/kg.

With `O=C(O)c1ccc(CN2CCC(OC(c3ccccc3)c3ccccc3)CC2)[nH]1` [Example 35, 5-(4-Benzhydryloxypiperidin-1-ylmethyl)-1H-pyrrole-2-carboxylic acid], the values for the IC50 against human H1 receptor and on rat H1 receptor were 15 nM and 61 nM, respectively.

`O=C(O)c1coc(CN2CCC(OC(c3ccccc3)c3ccccc3)CC2)n1` [Example 3] gave an IC50 on rat H1 receptor of 55 nM.

In turn, `O=C(O)c1ccnc(CN2CC[C@H](OC(c3ccc(F)cc3)c3ccc(F)cc3)C2)c1` [Example 154] showed an IC50 on human H1 receptor of 13 nM.

Regarding `O=C(O)c1ccnc(CN2CC[C@H](OC(c3ccccc3)c3ccccc3)C2)c1` [Example 131, 2-((S)-3-Benzhydryloxypyrrolidin-1-ylmethyl)isonicotinic acid], inhibition at human H1 receptor was half-maximal at 15 nM (IC50).

On to `O=C(O)c1cccc(CN2CCC(OC(c3ccccc3)c3ccccc3F)CC2)n1` (stereo not shown) [Example 20], for which the IC50 came out at 29 nM at human H1 receptor and 69 nM against rat H1 receptor.

With `O=C(O)c1cccc(CN2CCC(=C3c4ccccc4CCc4ccccc43)CC2)c1` [Example 74], in assay [1], the ED50 turned out to be 2.1 mg/kg.

With `O=C(O)c1cccc(CN2CCC(OC(c3ccccc3)c3ccccc3)C2)n1` (stereo not shown) [Example 24], the IC50 came to 9.2 nM on human H1 receptor and 8.2 nM against rat H1 receptor.

Molecule `O=C(O)c1ccnc(CN2CCC(OC(c3ccc(F)cc3)c3ccc(F)cc3)CC2)c1` [Example 124] showed an IC50 against human H1 receptor of 8.4 nM.

Source of the values: patent US9365553B2, “Heterocyclic compound and H1 receptor antagonist” (Aska Pharmaceutical Co., Ltd., priority 2010, dated 2016).
